Measured values published in ChEMBL document CHEMBL4616599, “Molecular mechanism of C-phycocyanin induced apoptosis in LNCaP cells” (Bioorg Med Chem, 2020).
The source made the active and inactive calls.

How the values were obtained:
Assay type in all cases: functional, cell-based
LNCaP [1] = test: Induction of apoptosis in human LNCAP cells assessed as decrease in uncleaved PARP expression at 10 uM measured after 24 hrs by Western blot analysis
LNCaP [2] = test: Induction of apoptosis in human LNCAP cells assessed as increase in cleaved PARP expression at 500 ug/ml measured after 24 hrs by western blot analysis
LNCaP [3] = test: Cytotoxicity against human LNCAP cells assessed as reduction in cell viability at 10 uM after 24 hrs by trypan blue dye exclusion assay
LNCaP [4] = test: Induction of apoptosis in human LNCAP cells assessed as increase in cleaved PARP expression at 10 uM measured after 24 hrs by Western blot analysis
LNCaP [5] = test: Induction of apoptosis in human LNCAP cells assessed as up regulation of p53 expression at 10 uM measured after 24 hrs by immunoblot analysis
LNCaP [6] = test: Induction of apoptosis in human LNCAP cells assessed as up regulation of p21 expression at 10 uM measured after 24 hrs by immunoblot analysis

Measured: Activity

CC[C@@]1(O)C(=O)OCc2c1cc1n(c2=O)Cc2cc3c(CN(C)C)c(O)ccc3nc2-1
active: all assays above
